Source: ChEMBL document CHEMBL3046437, “Synthesis, characterization and biological evaluation of some pyridine and quinoline fused chromenone derivatives” (2012)
In brackets after ≈: the same amount, converted by molar mass. Activity calls are given as the source filed them. The rule behind the calls is not given here.

Legend:
Format in all cases: functional
[1] = test system: Staphylococcus aureus; assay: Antibacterial activity against Staphylococcus aureus ATCC 25923 at 100 ug/ml after 24 hr by agar diffusion method; settings: ATCC 25923, 24 h, read-out: DIZ
[2] = test system: Staphylococcus aureus; assay: Antibacterial activity against Staphylococcus aureus ATCC 25923 after 24 to 48 hr by two-fold serial dilution method
[3] = test system: Streptococcus pyogenes; assay: Antibacterial activity against Streptococcus pyogenes ATCC 19615 after 24 to 48 hr by two-fold serial dilution method
[4] = test system: Pseudomonas; assay: Antibacterial activity against Pseudomonas phaseolicola GSPB 2828 at 100 ug/ml after 24 hr by agar diffusion method; settings: GSPB 2828, 24 h, read-out: DIZ
[5] = test system: Aspergillus niger; assay: Antifungal activity against Aspergillus niger MTCC 282 at 100 ug/ml after 48 hr by agar diffusion method; settings: for zone of inhibition at 100 µg/mL: MTCC 282, 48 h, read-out: DIZ
[6] = test system: Pseudomonas; assay: Antibacterial activity against Pseudomonas phaseolicola GSPB 2828 after 24 to 48 hr by two-fold serial dilution method
[7] = test system: Fusarium oxysporum; assay: Antifungal activity against Fusarium oxysporum ATCC 16417 at 100 ug/ml after 48 hr by agar diffusion method; settings: for zone of inhibition at 100 µg/mL: ATCC 16417, 48 h, read-out: DIZ
[8] = test system: Aspergillus niger; assay: Antifungal activity against Aspergillus niger MTCC 282 after 24 to 48 hr by two-fold serial dilution method
[9] = test system: Pseudomonas fluorescens; assay: Antibacterial activity against Pseudomonas fluorescens S 97 after 24 to 48 hr by two-fold serial dilution method
[10] = test system: Pseudomonas fluorescens; assay: Antibacterial activity against Pseudomonas fluorescens S 97 at 100 ug/ml after 24 hr by agar diffusion method; settings: for zone of inhibition at 100 µg/mL: S 97, 24 h, read-out: DIZ
[11] = test system: Streptococcus pyogenes; assay: Antibacterial activity against Streptococcus pyogenes ATCC 19615 at 100 ug/ml after 24 hr by agar diffusion method; settings: ATCC 19615, 24 h, read-out: DIZ
[12] = test system: Fusarium oxysporum; assay: Antifungal activity against Fusarium oxysporum ATCC 16417 after 24 to 48 hr by two-fold serial dilution method

Compound | zone of inhibition at 100 µg/mL [1] [mm] | MIC [2] [µg/mL] | MIC [3] [µg/mL] | zone of inhibition at 100 µg/mL [4] [mm] | zone of inhibition at 100 µg/mL [5] [mm] | MIC [6] [µg/mL] | zone of inhibition at 100 µg/mL [7] [mm] | MIC [8] [µg/mL] | MIC [9] [µg/mL] | zone of inhibition at 100 µg/mL [10] [mm] | zone of inhibition at 100 µg/mL [11] [mm] | MIC [12] [µg/mL] | diameter of the inhibition zone (DIZ) [7] | diameter of the inhibition zone (DIZ) [10] | diameter of the inhibition zone (DIZ) [5]
O=c1oc2ccc(Cl)cc2c2nc3c(cc12)CCc1ccccc1-3 | 26 | 12.5 (≈ 37.5 µM) | 12.5 (≈ 37.5 µM) | 15 | 8 | 50 (≈ 150 µM) | 23 | 100 (≈ 300 µM) | 50 (≈ 150 µM) | 16 | 23 | 12.5 (≈ 37.5 µM) |  |  | 
Cc1ccc2oc(=O)c3cc4c(nc3c2c1)-c1ccccc1CC4 | 23 | 50 (≈ 160 µM) | 25 (≈ 79.8 µM) | 18 | 18 | 25 (≈ 79.8 µM) | 17 | 50 (≈ 160 µM) | 25 (≈ 79.8 µM) | 18 | 17 | 50 (≈ 160 µM) |  |  | 
Cc1ccc2oc(=O)c3cc4c(nc3c2c1)CCC4 | 18 | 50 (≈ 199 µM) | 50 (≈ 199 µM) | 15 | 24 | 50 (≈ 199 µM) | 30 | 50 (≈ 199 µM) | 25 (≈ 99.5 µM) | 17 | 19 | 12.5 (≈ 49.7 µM) |  |  | 
Cc1cccc2c1oc(=O)c1cc3c(nc12)CCC3 | 25 | 12.5 (≈ 49.7 µM) | 12.5 (≈ 49.7 µM) | 19 | 28 | 25 (≈ 99.5 µM) |  | 12.5 (≈ 49.7 µM) | 50 (≈ 199 µM) | 14 | 22 |  | inactive |  | 
O=c1oc2ccc(Cl)cc2c2nc3c(cc12)CCC3 | 26 | 12.5 (≈ 46 µM) | 12.5 (≈ 46 µM) | 14 | 32 | 100 (≈ 368 µM) | 8 | 25 (≈ 92 µM) | 12.5 (≈ 46 µM) | 20 | 24 | > 100 |  |  | 
O=c1oc2ccc(Cl)cc2c2nc3c(cc12)CCCC3 | 24 | 12.5 (≈ 43.7 µM) | 12.5 (≈ 43.7 µM) | 18 | 20 | 50 (≈ 175 µM) | 16 | 50 (≈ 175 µM) |  |  | 23 | 50 (≈ 175 µM) |  | inactive | 
O=c1oc2ccccc2c2nc3c(cc12)CCc1ccccc1-3 | 20 | 25 (≈ 83.5 µM) | 12.5 (≈ 41.8 µM) | 16 | 25 | 50 (≈ 167 µM) | 10 | 12.5 (≈ 41.8 µM) | 25 (≈ 83.5 µM) | 19 | 19 | 100 (≈ 334 µM) |  |  | 
CC(=O)OCC1=C(C(=O)O)N2C(=O)[C@@H](NC(=O)Cc3cccs3)[C@H]2SC1 [CEPHALOTHIN] | 36 | 6.25 (≈ 15.8 µM) | 6.25 (≈ 15.8 µM) | 38 |  | 6.25 (≈ 15.8 µM) |  |  | 6.25 (≈ 15.8 µM) | 37 | 37 |  |  |  | 
Cc1cccc2c1oc(=O)c1cc3c(nc12)CCCC3 | 27 | 12.5 (≈ 47.1 µM) | 25 (≈ 94.2 µM) | 19 | 25 | 25 (≈ 94.2 µM) | 10 | 50 (≈ 188 µM) | 25 (≈ 94.2 µM) | 20 | 18 | 100 (≈ 377 µM) |  |  | 
O=c1oc2ccccc2c2nc3c(cc12)CCC3 | 19 | 50 (≈ 211 µM) | 25 (≈ 105 µM) | 14 | 10 | 50 (≈ 211 µM) | 18 | > 100 | 50 (≈ 211 µM) | 19 | 20 | 50 (≈ 211 µM) |  |  | 
O=c1oc2ccccc2c2nc3c(cc12)CCCC3 | 22 | 25 (≈ 99.5 µM) | 50 (≈ 199 µM) | 20 | 22 | 25 (≈ 99.5 µM) | 26 | 50 (≈ 199 µM) | 25 (≈ 99.5 µM) | 17 | 22 | 12.5 (≈ 49.7 µM) |  |  | 
C[C@@H]1C[C@@H]([C@H](O)CC2CC(=O)NC(=O)C2)C(=O)[C@@H](C)C1 [CYCLOHEXIMIDE] |  |  |  |  | 42 |  | 43 | 6.25 (≈ 22.2 µM) |  |  |  | 3.12 (≈ 11.1 µM) |  |  | 
Cc1ccc2oc(=O)c3cc4c(nc3c2c1)CCCC4 | 21 | 50 (≈ 188 µM) | 12.5 (≈ 47.1 µM) | 14 |  | 50 (≈ 188 µM) | 17 |  | 50 (≈ 188 µM) | 16 | 25 | 50 (≈ 188 µM) |  |  | inactive
O=C(N[C@H](CO)[C@H](O)c1ccc([N+](=O)[O-])cc1)C(Cl)Cl [CHLORAMPHENICOL] | 42 | 3.12 (≈ 9.67 µM) | 3.12 (≈ 9.67 µM) | 37 |  | 6.25 (≈ 19.3 µM) |  |  | 6.25 (≈ 19.3 µM) | 38 | 44 |  |  |  | 
Cc1cccc2c1oc(=O)c1cc3c(nc12)-c1ccccc1CC3 | 25 | 12.5 (≈ 39.9 µM) | 12.5 (≈ 39.9 µM) | 14 | 15 | 50 (≈ 160 µM) | 11 | 50 (≈ 160 µM) | 50 (≈ 160 µM) | 15 | 20 | 100 (≈ 319 µM) |  |  | 
